Data as given in patent US6159940A, “Method for modulating hemopoiesis” (Immunotech Developments Inc., priority 1999, dated 2000).

Key:
[1] = Clinical study: tolerance, biochemical indices, humoral status; format: in vivo, patients
Source text: The clinical study of H-Ile-Glu-Trp-OH was continued in groups of patients with pronounced secondary pathological changes in their immune system. The primary task of the first stage of the investigation was to observe the preparation tolerance, to reveal toxic, allergic and other reactions, hemogram dynamics and biochemical indices. Further investigation, along with further monitoring of the major clinical and laboratory parameters, included evaluation of the immunological status of a patient before and after the immunopeptide treatment.
Before instituting the treatment, examination was carried out including case history, clinical, laboratory and instrumental investigations. Necessary morphological investigations were performed to verify the diagnosis. There were also the results of hemogram dynamics before and after each treatment course of H-Ile-Glu-Trp-OH. After these courses the biochemical indices and urine tests were examined again. X-ray, ultrasonic and morphological examinations were repeated on indication.
Humoral immunity was also investigated: the content of different types of immunoglobulins, protein fractions, antibodies to thyroid, and the Coombs test (the latter was performed in the case of haemolytic anaemia).
One ml daily, intranasally, once or twice in divided doses, for 5 days. The course was repeated after a 3-week interval. To those patients who received a cytostatic mono- or polychemotherapy, H-Ile-Glu-Trp-OH was administered from the first day of the break in the cytostatic treatment.

Thymoma EL-4 cells = Thymoma EL-4 cells incubated with peptide and oxyurea, transplanted to mice: tumor growth and survival; format: in vivo, C57B1 mice
Protocol: The Thymoma EL-4 cells were extracted from the abdomen cavity of C57B1 mice at the 7th day after transplantation. The suspension was washed by centrifugation in the medium RPMI. Then the cells were resuspended in the growth medium (RPMI+10% of embryo serum+0.1% penicillin/streptomycin) and were split in culture flasks 5 ml each ([…] per flask). 2 mg of the preparation were added (20 μl) to each probe. After 18 hours of incubation (37 degrees Celsius CO2), OU was added to the half of probes (1 mg per 5 ml). Incubation was done for 1 more hour in the same conditions and then cells were washed out by centrifugation in the medium RPMI. The precipitated cells were resuspended in calculation 1 ml per 0.2 ml of RPMI medium and then transplanted to the mice C57B1 under the back skin.
The taking of the measurements of the size of the tumor was started after the knot became visible. The tumor was measured every day until it was impossible to measure. The survival ability of the mice was examined during 60 days after transplantation. Mice that survived after this period were considered to be cured. Each experimental group consisted of 6 animals.

[2] = tested on: karyocytes in femoral bone marrow; test: Bone marrow regeneration in irradiated mice (4 Gy), scheme 2; format: in vivo
Protocol: Irradiated mice (4 Gy) received intramuscular injections of the peptide in the dose of 10 μg/kg according to 2 schemes.
b) According to scheme 2, the peptide injections were made starting from the 3rd day after the irradiation, at the same time of maximum depletion of the pool of mature nucleated cells and the bone marrow. The groups of mice were formed in the same way as in the previous scheme. […] Tables 9 and 10 present the data on karyocyte and lymphocyte counts in blood (per 1 mm^3) of mice treated according to scheme 2.
The data in Table 11 reflect the process of bone marrow regeneration in control and test irradiated (4 Gy) mice treated with peptide according to scheme 2. The regeneration was equally intensive in all animal groups till the 11th day, from day 14 to day 18 the nucleated cells counts were considerably higher in the bone marrow of test mice.

CFU-S = test: Endogenous spleen colonies in irradiated mice (6 Gy); format: in vivo; conditions: 10 μg/kg IM, Day 9
Protocol: Test mice were irradiated in the dose of 6 Gy Beginning from the first hour after the irradiation, the mice received once daily IM injections of 10 μg/kg H-Ile-Glu-Trp-OH. Injections were made 1, 2, 3, or 4 times. The mice were killed on Day 9, spleens were taken out and fixed in Buene's solution, the colonies were counted. 110 mice were used in the test.

[3] = Acute toxicity in guinea pigs; format: in vivo; conditions: 20 guinea pigs
Protocol: To establish the safety of use of the peptides, toxicity tests were performed. Toxicity tests where performed in accordance Pharmacological Committee Russian Federation (RF) "guidelines for the pre-clinical study of general toxic activity of new pharmacological compounds". M., 1985.
Acute toxicity was studied in 20 guinea pigs and 6 dogs. […] The drug has a wide therapeutic range.

tumor cells EL-4 = test: Thymoma EL-4 cells incubated with peptide and heated, transplanted to mice: tumor size; format: in vivo, C57B1 mice; conditions: for Tumor size: EL-4, 13th day
Protocol: Incubation of the tumor cells with the tested drugs were performed the same way as described above in the experiments with OU. After 18-hour incubation, the cells were washed in the medium RPMI, and then resuspended in the concentration of 5 ml/1 ml in plastic test tubes of total volume of 2 ml each. Then the cells were heated for 1 hour at 43 degrees Celsius, and transplanted under the back skin of the mice C57B1. The growth of the tumor was examined the same way as described above.

[4] = 60 days after transplantation of treated EL-4 cells

Substance: H-Ile-Glu-Trp-OH
- protein fractions and immunoglobulins in patients' sera ([1]; 1-1.5 months after the treatment): No dynamics of these indices was found
- dynamics of biochemical indices ([1]; before and after 1-3 treatment courses): revealed no changes
- AP dynamics and ECG ([1]; human, in vivo): failed to reveal any changes
- adverse reactions ([1]; prolonged administration (5-6 courses), intranasally): no toxic reactions
- % of Survival (Thymoma EL-4 cells; [4]): 16.6%
- Number of Survived Mice From 6 (Thymoma EL-4 cells; [4]): 1/6
- extension of lifetime in combination with cytostatics (Thymoma EL-4 cells; mice with Thymoma EL-4): 15 days
- increase in lifetime versus control (Thymoma EL-4 cells; mice with Thymoma EL-4): 4 days
- tumor growth (Thymoma EL-4 cells; thymoma cells incubated with H-Ile-Glu-Trp-OH, then OU): depression of the tumor growth on the 12th day is most definite
- Karyocyte Count in Femoral Bone Marrow ([2]; scheme 2, 1 Time, Day 7): 16.4 ± 0.3 × 10^6
- Karyocyte Count in Femoral Bone Marrow ([2]; scheme 2, 1 Time, Day 11): 17.9 ± 1.8 × 10^6
- Karyocyte Count in Femoral Bone Marrow ([2]; scheme 2, 1 Time, Day 14): 18.7 ± 1.1 × 10^6
- Karyocyte Count in Femoral Bone Marrow ([2]; scheme 2, 1 Time, Day 18): 18.0 ± 0.4 × 10^6
- Karyocyte Count in Femoral Bone Marrow ([2]; scheme 2, 1 Time, Day 21): 22.4 ± 2.2 × 10^6
- Karyocyte Count in Femoral Bone Marrow ([2]; scheme 2, 2 Times, Day 7): 14.9 ± 1.7 × 10^6
- Karyocyte Count in Femoral Bone Marrow ([2]; scheme 2, 2 Times, Day 11): 18.6 ± 2.3 × 10^6
- Karyocyte Count in Femoral Bone Marrow ([2]; scheme 2, 2 Times, Day 14): 14.1 ± 1.7 × 10^6
- Karyocyte Count in Femoral Bone Marrow ([2]; scheme 2, 2 Times, Day 18): 17.2 ± 1.0 × 10^6
- Karyocyte Count in Femoral Bone Marrow ([2]; scheme 2, 2 Times, Day 21): 18.9 ± 0.6 × 10^6
- Karyocyte Count in Femoral Bone Marrow ([2]; scheme 2, 3 Times, Day 7): 12.25 ± 1.3 × 10^6
- Karyocyte Count in Femoral Bone Marrow ([2]; scheme 2, 3 Times, Day 11): 18.5 ± 2.9 × 10^6
- Karyocyte Count in Femoral Bone Marrow ([2]; scheme 2, 3 Times, Day 14): 16.9 ± 0.8 × 10^6
- Karyocyte Count in Femoral Bone Marrow ([2]; scheme 2, 3 Times, Day 18): 16.9 ± 0.8 × 10^6
- Karyocyte Count in Femoral Bone Marrow ([2]; scheme 2, 3 Times, Day 21): 19.5 ± 1.6 × 10^6
- Karyocyte Count in Femoral Bone Marrow ([2]; scheme 2, 4 Times, Day 11): 20.3 ± 1.3 × 10^6
- Karyocyte Count in Femoral Bone Marrow ([2]; scheme 2, 4 Times, Day 14): 18.9 ± 0.2 × 10^6
- Karyocyte Count in Femoral Bone Marrow ([2]; scheme 2, 4 Times, Day 18): 17.7 ± 1.2 × 10^6
- Karyocyte Count in Femoral Bone Marrow ([2]; scheme 2, 4 Times, Day 21): 20.0 ± 1.8 × 10^6
- Colony (endogenous spleen colonies) (CFU-S; 1 times): 3.3 ± 0.6
- Colony (endogenous spleen colonies) (CFU-S; 2 times): 4.4 ± 0.5
- Colony (endogenous spleen colonies) (CFU-S; 3 times): 5.0 ± 0.7
- Colony (endogenous spleen colonies) (CFU-S; 4 times): 5.2 ± 0.8
- acute toxicity [3]: No toxic effects were observed
- Tumor size (tumor cells EL-4; + Heating (1 hour at 43 degrees Celsius)): No Tumor
- Tumor size (tumor cells EL-4; no heating): 188.7 mm squared
- tumor formation (tumor cells EL-4; in vitro treatment followed by heating, 21st day): no tumor formation was observed
